Test results reported in US9868720B2 (Genentech, Inc., priority 2013, dated 2018).

Molecular target: DLK kinase (N-terminally GST-tagged DLK, catalytic domain amino acid 1-520) (Homo sapiens (Human), UniProt Q12852)
Test: DLK TR-FRET assay
Type: biochemical
Conditions: 30 μM ATP, MKK4 K131M substrate, read-out: DLK HTRF (Ki)
Protocol: DLK TR-FRET assay: DLK kinase reactions (20 μL) containing 5 nM N-terminally GST-tagged DLK (catalytic domain amino acid 1-520) (Carna Bioscience), 40 nM N-terminally HIS-tagged MKK4 K131M substrate, and 30 μM ATP in kinase reaction buffer (50 mM HEPES, pH 7.5, 0.01% Triton X-100, 0.01% Bovine γ-Globulins, 2 mM DTT, 10 mM MgCl2 and 1 mM EGTA), and testing compound 1:3 serial diluted starting at 20 uM were incubated at ambient temperature for 60 minutes in 384 well OptiPlate (Perkin Elmer). To quench kinase reactions and detect phosphorylated MKK4, 15 μL of TR-FRET antibody mixture containing 2 nM anti-phosphorylated MKK4 labeled with Europium cryptate (Cisbio) and 23 nM anti-HIS labeled with D2 (Cisbio) in detection buffer (25 mM Tris pH 7.5, 100 mM NaCl, 100 mM EDTA, 0.01% Tween-20, and 200 mM KF) was added to the reaction mixture. The detection mixture was incubated for 3 hours at ambient temperature and the TR-FRET was detected with an EnVision multilabel plate reader (Perkin-Elmer) using the LANCE/DELFIA Dual Enh label from Perkin-Elmer (excitation filter: UV2 (TRF) 320 and emission filters: APC 665 and Europium 615).

Sequence of DLK kinase (N-terminally GST-tagged DLK, catalytic domain amino acid 1-520) (Q12852 1-520): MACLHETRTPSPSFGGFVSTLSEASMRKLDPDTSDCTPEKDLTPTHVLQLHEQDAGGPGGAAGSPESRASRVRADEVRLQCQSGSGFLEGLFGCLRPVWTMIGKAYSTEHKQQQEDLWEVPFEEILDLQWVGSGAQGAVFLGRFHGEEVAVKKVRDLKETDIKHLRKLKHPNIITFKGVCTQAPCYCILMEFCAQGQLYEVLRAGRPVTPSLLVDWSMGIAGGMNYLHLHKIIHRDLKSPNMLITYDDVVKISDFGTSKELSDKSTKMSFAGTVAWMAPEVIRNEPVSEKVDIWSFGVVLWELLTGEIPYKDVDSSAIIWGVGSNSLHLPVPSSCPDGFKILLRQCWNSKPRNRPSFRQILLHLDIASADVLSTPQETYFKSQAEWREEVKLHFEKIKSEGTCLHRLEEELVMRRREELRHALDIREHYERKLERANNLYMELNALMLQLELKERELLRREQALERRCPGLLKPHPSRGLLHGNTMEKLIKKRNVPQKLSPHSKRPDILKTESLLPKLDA

| Ki [nM] | SMILES |
| --- | --- |
| 100 | COc1ccnc(Nc2cc(C3CCN(C(C)=O)C3)nc(N3CCCC3C)n2)c1 (stereo not shown) [Example 129, 1-{3-[6-(4-Methoxy-pyridin-2-ylamino)-2-(2-methyl-pyrrolidin-1-yl)-pyrimidin-4-yl]-pyrrolidin-1-yl}-ethanone] |
| 36.8 | CS(=O)(=O)N1CCCC(c2cc(Nc3cc(C(F)(F)F)ccn3)nc(C3CCCC3)n2)C1 (stereo not shown) [Example 385, [2-Cyclopentyl-6-(1-methanesulfonyl-piperidin-3-yl)-pyrimidin-4-yl]-(4-trifluoromethyl-pyridin-2-yl)-amine] |
| 70.1 | CN1CCCC(c2cc(Nc3cc(C(F)(F)F)ccn3)nc(N3CC4CCC(C3)O4)n2)C1 (stereo not shown) [Example 329, [6-(1-Methyl-piperidin-3-yl)-2-(8-oxa-3-aza-bicyclo[3.2.1]oct-3-yl)-pyrimidin-4-yl]-(4-trifluoro-methyl-pyridin-2-yl)-amine] |
| 0.95 | C[C@@H]1CCCN1c1nc(Nc2cc(C3CC3)ccn2)cc(C2CCNCC2)n1 [Example 202, (4-Cyclopropyl-pyridin-2-yl)-[2-((R)-2-methyl-pyrrolidin-1-yl)-6-piperidin-4-yl-pyrimidin-4-yl]-amine] |
| 11.1 | CC(=O)N1CC(c2cc(Nc3cc(C(F)(F)F)ccn3)nc(N3CCC[C@H]3C)n2)C1 [Example 375, 1-{3-[2-((R)-2-Methyl-pyrrolidin-1-yl)-6-(4-trifluoromethyl-pyridin-2-ylamino)-pyrimidin-4-yl]-azetidin-1-yl}-ethanone] |
| 41.5 | O=C(C1CC1)N1CCC(c2cc(Nc3cc(C(F)(F)F)ccn3)nc(N3CCC(F)(F)C3)n2)C1 (stereo not shown) [Example 184, Cyclopropyl-{3-[2-(3,3-difluoro-pyrrolidin-1-yl)-6-(4-trifluoromethyl-pyridin-2-ylamino)-pyrimidin-4-yl}-pyrrolidin-1-yl}-methanone] |
| 46.2 | CC1CC1C(=O)N1CCC(c2cc(Nc3cc(C(F)(F)F)ccn3)nc(N3CCC(F)(F)C3)n2)C1 (stereo not shown) [Example 180] |
| 8.34 | CC(C)(C)c1ccnc(Nc2cc(C3CCNCC3)nc(N3CCC(F)(F)C3)n2)c1 [Example 200, (4-tert-Butyl-pyridin-2-yl)-[2-(3,3-difluoro-pyrrolidin-1-yl)-6-piperidin-4-yl-pyrimidin-4-yl]-amine] |
| 12.4 | CC(=O)N1CCC(c2cc(Nc3cc(C(F)(F)F)ccn3)nc(-c3cnn(C)c3)n2)CC1 [Example 424, 1-{4-[2-(1-Methyl-1H-pyrazol-4-yl)-6-(4-trifluoromethyl-pyridin-2-ylamino)-pyrimidin-4-yl]-piperidin-1-yl}-ethanone] |
| 26.8 | O=C(C(F)F)N1CCCC(c2cc(Nc3cc(C(F)(F)F)ccn3)nc(N3CCC(F)(F)C3)n2)C1 (stereo not shown) [Example 178, 1-{3-[2-(3,3-Difluoro-pyrrolidin-1-yl)-6-(4-trifluoromethyl-pyridin-2-ylamino)-pyrimidin-4-yl]-piperidin-1-yl}-2,2-difluoro-ethanone] |
| 22.6 | CCC1CN(c2nc(Nc3cc(C(F)(F)F)ccn3)cc(C3CCN(C)C3)n2)CCO1 (stereo not shown) [Example 348, [2-(2-Ethyl-morpholin-4-yl)-6-(1-methyl-pyrrolidin-3-yl)-pyrimidin-4-yl]-(4-trifluoromethyl-pyridin-2-yl)-amine] |
| 7.69 | CC1CCCN1c1nc(Nc2cc(C(F)(F)F)ccn2)cc(C2CCN(C(=O)Cn3ccnc3)C2)n1 (stereo not shown) [Example 204, 2-Imidazol-1-yl-1-{3-[2-(2-methyl-pyrrolidin-1-yl)-6-(4-trifluoromethyl-pyridin-2-ylamino)-pyrimidin-4-yl]-pyrrolidin-1-yl}-ethanone] |
| 0.17 | COc1cc(C)ccc1C(=O)N1CCCC(c2cc(Nc3cc(C)ccn3)nc(N3CCCC3C)n2)C1 (stereo not shown) [Example 425, (2-Methoxy-4-methyl-phenyl)-{3-[6-(4-methyl-pyridin-2-ylamino)-2-(2-methyl-pyrrolidin-1-yl)-pyrimidin-4-yl]-piperidin-1-yl}-methanone] |
| 76.8 | C[C@@H]1CCCN1c1nc(Nc2cc(C(F)(F)F)ccn2)cc(C2(C#N)CCOCC2)n1 [Example 209, 4-[2-((R)-2-Methyl-pyrrolidin-1-yl)-6-(4-trifluoromethyl-pyridin-2-ylamino)-pyrimidin-4-yl]-tetrahydro-pyran-4-carbonitrile] |
| 636 | CN1CCCC(c2cc(Nc3cc(C(F)(F)F)ccn3)nc(N3CC(N4CCOCC4)C3)n2)C1 (stereo not shown) [Example 371, [6-(1-Methyl-piperidin-3-yl)-2-(3-morpholin-4-yl-azetidin-1-yl)-pyrimidin-4-yl]-(4-trifluoromethyl-pyridin-2-yl)-amine] |
| 101 | CC(=O)N1CC(c2cc(Nc3cc(C(F)(F)F)ccn3)nc(C3CC3)n2)C1 [Example 356, 1-{3-[2-Cyclopropyl-6-(4-trifluoromethyl-pyridin-2-ylamino)-pyrimidin-4-yl]-azetidin-1-yl}-ethanone] |
| 120 | O=C1CC(c2cc(Nc3cc(C(F)(F)F)ccn3)nc(C3CCOC3)n2)CCN1 (stereo not shown) [Example 392, 4-[2-(Tetrahydro-furan-3-yl)-6-(4-trifluoromethyl-pyridin-2-ylamino)-pyrimidin-4-yl]-piperidin-2-one] |
| 10.4 | C[C@@H]1CC[C@@H](C)N1c1nc(Nc2cc(C(F)(F)F)ccn2)cc(C2CCNCC2)n1 [Example 143, [2-((2R,5R)-2,5-Dimethyl-pyrrolidin-1-yl)-6-piperidin-4-yl-pyrimidin-4-yl]-(4-trifluoromethyl-pyridin-2-yl)-amine] |
| 18.4 | C[C@@H]1CCCN1c1nc(Nc2cc(C(F)(F)F)ccn2)cc(-c2ccc(=O)n(C)c2)n1 [Example 331, 1-Methyl-5-[2-((R)-2-methyl-pyrrolidin-1-yl)-6-(4-trifluoromethyl-pyridin-2-ylamino)-pyrimidin-4-yl]-1H-pyridin-2-one] |
| 97.8 | CC(C)c1nc(Nc2cc(C(F)(F)F)ccn2)cc(C2CCNC(=O)C2)n1 (stereo not shown) [Example 408, 4-[2-Isopropyl-6-(4-trifluoro-methyl-pyridin-2-ylamino)-pyrimidin-4-yl]-piperidin-2-one] |

Second part, the molecule before the results:

| SMILES | Ki [nM] |
| --- | --- |
| N#CC1(c2cc(Nc3cc(C(F)(F)F)ccn3)nc(N3CCC(F)(F)C3)n2)CCNCC1 [Example 105, 4-[2-(3,3-Difluoro-pyr-rolidin-1-yl)-6-(4-trifluoro-methyl-pyridin-2-ylamino)-pyrimidin-4-yl]-piperidine-4-carbonitrile] | 11.7 |
| Cc1ccnc(Nc2cc(C3CCCN(Cc4cn(C)nc4C)C3)nc(C)n2)c1 (stereo not shown) [Example 38, {6-[1-(1,3-Dimethyl-1H-pyrazol-4-ylmethyl)-piperidin-3-yl]-2-methyl-pyrimidin-4-yl}-(4-methyl-pyridin-2-yl)-amine] | > 2100 |
| CC(=O)N1CCCC(c2cc(Nc3cc(C)ccn3)nc(-c3ccccc3)n2)C1 (stereo not shown) [Example 106, 1-{3-[6-(4-Methyl-pyridin-2-ylamino)-2-phenyl-pyrimidin-4-yl]-piperidin-1-yl}-ethanone] | 30.7 |
| FC1(F)CCCN(c2nc(Nc3cc(C(F)(F)F)ccn3)cc(C3CCNC3)n2)C1 (stereo not shown) [Example 96, [2-(3,3-Difluoro-piperidin-1-yl)-6-pyrrolidin-3-yl-pyrimidin-4-yl]-(4-tri-fluoromethyl-pyridin-2-yl)-amine] | 3.1 |
| Cc1ccc(Nc2cc(C3CCCN(C(=O)c4ccccc4)C3)nc(C)n2)nc1 (stereo not shown) [Example 5] | 401 |
| FC(F)(F)c1ccnc(Nc2cc(C3CCNC3)nc(N3CCCC3)n2)c1 (stereo not shown) [Example 66, (2-Pyrrolidin-1-yl-6-pyr-rolidin-3-yl-pyrimidin-4-yl)-(4-trifluoromethyl-pyridin-2-yl)-amine] | 4.8 |
| CN(CCO)c1nc(Nc2cc(C(F)(F)F)ccn2)cc(C2CCNC2)n1 (stereo not shown) [Example 47, 2-{Methyl-[4-pyrrolidin-3-yl-6-(4-trifluoromethyl-pyridin-2-ylamino)-pyrimidin-2-yl]-amino}-ethanol] | 12.6 |
| CC(=O)N1CCC(c2cc(Nc3cc(C)ccn3)nc(N3CCCCC3)n2)C1 (stereo not shown) [Example 90, 1-{3-[6-(4-Methyl-pyridin-2-ylamino)-2-piperidin-1-yl-pyrimidin-4-yl]-pyrrolidin-1-yl}-ethanone] | 104 |
| COc1ccnc(Nc2cc(C3CCNCC3)nc(N3CCCC3C)n2)c1 (stereo not shown) [Example 125, (4-Methoxy-pyridin-2-yl)-[2-(2-methyl-pyrrolidin-1-yl)-6-piperidin-4-yl-pyrimidin-4-yl]-amine] | 15.2 |
| Cc1nc(Nc2cc(C(F)(F)F)ccn2)cc(C2CCCN(C(=O)c3ccc(F)cc3Cl)C2)n1 (stereo not shown) | 52.1 |
| Cc1ccnc(Nc2cc(C3CCCN(Cc4ccccn4)C3)nc(C)n2)c1 (stereo not shown) [Example 56, (4-Methyl-pyridin-2-yl)-[2-methyl-6-(1-pyridin-2-ylmethyl-piperidin-3-yl)-pyrimidin-4-yl]-amine] | 293 |
| C[C@H]1CCCN1c1nc(Nc2cc(C(F)(F)F)ccn2)cc(C2CCNCC2)n1 [Example 112, [2-((S)-2-Methyl-pyrrolidin-1-yl)-6-piperidin-4-yl-pyrimidin-4-yl]-(4-trifluoromethyl-pyridin-2-yl)-amine] | 15.8 |
| Cc1nc(Nc2ccc(C(F)(F)F)cn2)cc(C2CCCN(C(=O)c3ccccc3)C2)n1 (stereo not shown) | 691 |
| Cc1ccnc(Nc2cc(C3CCNCC3)nc(N3CCCC3)n2)c1 [Example 24, (4-Methyl-pyridin-2-yl)-(6-piperidin-4-yl-2-pyrrolidin-1-yl-pyrimidin-4-yl)-amine] | 20.5 |
